Experimental data reported in patent publication US10385069B2, “Imidazo[2,1-B]thiazole and 5,6-dihydroimidazo[2,1-B]thiazole derivatives useful as S100-inhibitors” (Active Biotech AB, priority 2015, dated 2019).

Target: T1, interaction between biotinylated human S100A9 and human RAGE-Fc (Homo sapiens, UniProt P06702)
T1 construct: made in house; host or cells: E. coli
T1 sequence (P06702 1-114): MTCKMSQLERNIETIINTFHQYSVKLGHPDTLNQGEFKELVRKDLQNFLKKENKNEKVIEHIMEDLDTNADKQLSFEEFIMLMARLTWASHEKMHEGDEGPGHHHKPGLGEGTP
Test: AlphaScreen inhibition assay, biot-hS100A9:hRAGE-Fc
Format: binding
Details: biot-hS100A9 pre-incubated with compound 1 h, assay buffer with CaCl2 and ZnCl2
Source text: Inhibition Assay, Biot-hS100A9:hRAGE-Fc
The AlphaScreen (Amplified Luminescent Proximity Homogeneous Assay) contains two types of beads, Alpha Donor beads and Acceptor beads (PerkinElmer). Upon laser excitation at 680 nm a photosensitizer in the Donor bead converts ambient oxygen to a more excited singlet state. The singlet oxygen molecule diffuses (maximum 200 nm) to react with a thioxene derivative in the Acceptor bead and generates a chemiluminescence reaction. Fluorophores in the Acceptor bead subsequently emit light at 520-620 nm which can be detected in the EnVision® Multilabel plate Reader (PerkinElmer). The beads are light sensitive and all work with the beads is performed under subdued light conditions or using green filters on light sources (Roscolux Chroma Green #389, Rosco).
In the AlphaScreen Inhibition Assay described here, protein A (Staphylococcus aureus) conjugated Acceptor beads are used together with streptavidin coated Donor beads (Perkin Elmer 6760617M). The Acceptor beads are pre-incubated with Fc-tagged recombinant human RAGE (rhRAGE-Fc) allowing binding of the rhRAGE-Fc to protein A on the beads. Biotinylated human S100A9 (biot-hS100A9) is pre-incubated with the low molecular test compounds. The pre-mixes are then added to the wells of a micro-plate and incubated allowing interaction between biot-hS100A9 and rhRAGE-Fc. Subsequent addition of streptavidin coated Donor beads causes binding of the streptavidin to the biotinylated hS100A9. After an additional incubation the signal is measured.
Without inhibitory compounds, the interaction of biot-hS100A9 to rhRAGE-Fc will bring the Acceptor and Donor beads in close proximity thus generating a high signal. With an inhibitor present the complex will not form resulting in a decreased signal. The assay is illustrated in FIG. 1.
Chemicals and Reagents. • AlphaScreen® General IgG (Protein A) Detection Kit, (PerkinElmer 6760617M) • HBS-P buffer (GE Healthcare, BR-1003-68) • HBS-N buffer (GE Healthcare, BR-1003-69) • CaCl2 in HBS-P • ZnCl2 in Milli-Q water • DMSO • Biotinylated hS100A9, (biotinylated via cystein by EZ-link Iodoacetyl-PEG2-Biotin reagent (Pierce no. 21334), in HBS-N • rhRAGE-Fc (R&D Systems, 1145-RG-50), in HBS-P
The AlphaScreen assay method is used for screening of the inhibitory effect of different compound samples at fixed concentrations or for IC50 determination by varying the compound concentrations. Samples of test compounds and references are prepared from solutions in DMSO. Relevant reference inhibitors and DMSO are used as controls for defined inhibition and non-inhibition, respectively in the assay. The percent inhibition in assay for test compounds and references are calculated by comparing their obtained assay signals with the signal values for the control with only DMSO (no compound).
Assay concentration of biotinylated hS100A9 and rhRAGE-Fc are batch dependent, and are determined and defined by separate cross-titration experiments using this AlphaScreen inhibition method to verify the optimal setup regarding signal strength and achievement of a defined inhibition with relevant reference compounds. The Final assay concentrations of Acceptor and Donor beads are 20 μg/mL.
Assay buffer is prepared by adding CaCl2 and ZnCl2 to HBS-P and is used freshly prepared in the experiment.
Biotin-hS100A9 solution for the experiment is prepared by dilution of appropriate amount of stock solution biot-hS100A9 in assay buffer (with CaCl2 and ZnCl2) and incubation in room temperature for 30 minutes.
rhRAGE-Fc solution for the experiment is prepared by dilution appropriate amount of rhRAGE-Fc stock in assay buffer.
Protein A Acceptor beads are diluted in assay buffer and are added to an equal volume of the prepared diluted rhRAGE-Fc solution. The beads are light sensitive. The vial is covered with aluminum foil and incubated at room temperature in the dark until biot-hS100A9+compound incubation is finished (see below). […]

SMILES | IC50 [nM]
O=C(NS(=O)(=O)CCCO)c1cn2c(n1)sc1c(Cl)c(Cl)ccc12 [Example 28, 9,10-Dichloro-N-(3-hydroxypropanesulfonyl)-7-thia-2,5-diazatricyclo[6.4.0.0^2,6]dodeca-1(8),3,5,9,11-pentaene-4-carboxamide] | 170
O=C(O)c1cn2c3c(sc2n1)CCCC3 [Example 31, 7-Thia-2,5-diazatricyclo[6.4.0.0^2,6]dodeca-1(8),3,5-triene-4-carboxylic acid] | 2390
O=C(O)c1cn2c3c(sc2n1)CC(c1ccccc1)CC3 (stereo not shown) [Example 34, 10-Phenyl-7-thia-2,5-diazatricyclo[6.4.0.0^2,6]dodeca-1(8),3,5-triene-4-carboxylic acid] | 1500
CC(C)(C)C1CCc2c(sc3nc(C(=O)O)cn23)C1 (stereo not shown) [Example 35, 10-tert-Butyl-7-thia-2,5-diazatricyclo[6.4.0.0^2,6]dodeca-1(8),3,5-triene-4-carboxylic acid] | 450
CC1(C)Cc2c(sc3nc(C(=O)O)cn23)C1(C)C [Example 36, 4,4,5,5-Tetramethyl-7-thia-1,9-diazatricyclo[6.3.0.0^2,6]undeca-2(6),8,10-triene-10-carboxylic acid] | 360
O=C(O)c1cn2c3c(sc2n1)CCCCC3 [Example 37, 7-Thia-2,5-diazatricyclo[6.5.0.0^2,6]trideca-1(8),3,5-triene-4-carboxylic acid] | 1050
CC1(C)CCc2sc3nc(C(=O)O)cn3c2C1 [Example 38, 11,11-Dimethyl-7-thia-2,5-diazatricyclo[6.4.0.0^2,6]dodeca-1(8),3,5-triene-4-carboxylic acid] | 830
CC(C)(C)Nc1c(C(=O)O)nc2sc3c(n12)CCC(C(C)(C)C)C3 (stereo not shown) [Example 40, 10-tert-Butyl-3-(tert-butylamino)-7-thia-2,5-diazatricyclo[6.4.0.0^2,6]dodeca-1(8),3,5-triene-4-carboxylic acid] | 460
CC(C)(C)C1CCc2c(sc3nc(C(=O)O)c(NCc4ccccc4)n23)C1 (stereo not shown) [Example 42, 3-(Benzylamino)-10-tert-butyl-7-thia-2,5-diazatricyclo[6.4.0.0^2,6]dodeca-1(8),3,5-triene-4-carboxylic acid] | 1040
CC1(C)CCCc2c1sc1nc(C(=O)O)cn21 [Example 43, 9,9-Dimethyl-7-thia-2,5-diazatricyclo[6.4.0.0^2,6]dodeca-1(8),3,5-triene-4-carboxylic acid] | 1240
CC1CCCc2c1sc1nc(C(=O)O)cn21 (stereo not shown) [Example 44, 9-Methyl-7-thia-2,5-diazatricyclo[6.4.0.0^2,6]dodeca-1(8),3,5-triene-4-carboxylic acid] | 840
CC(C)(C)C1CCc2c(sc3nc(CC(=O)O)cn23)C1 (stereo not shown) [Example 45, 2-{10-tert-Butyl-7-thia-2,5-diazatricyclo[6.4.0.0^2,6]dodeca-1(8),3,5-trien-4-yl}acetic acid] | 3100
CC1(C)Cc2c(sc3nc(CC(=O)O)cn23)C(C)(C)C1 [Example 46, 2-{9,9,11,11-Tetramethyl-7-thia-2,5-diazatricyclo[6.4.0.0^2,6]dodeca-1(8),3,5-trien-4-yl}acetic acid] | 4940
CC(C)(C)C1CCc2c(sc3nc(C(=O)NS(C)(=O)=O)cn23)C1 (stereo not shown) [Example 47, 10-tert-Butyl-N-methanesulfonyl-7-thia-2,5-diazatricyclo[6.4.0.0^2,6]dodeca-1(8),3,5-triene-4-carboxamide] | 340
CC1(C)CCc2sc3nc(C(=O)NS(C)(=O)=O)cn3c2C1 [Example 50, N-Methanesulfonyl-11,11-dimethyl-7-thia-2,5-diazatricyclo[6.4.0.0^2,6]dodeca-1(8),3,5-triene-4-carboxamide] | 1040
CC(C)(C)C1CCc2c(sc3nc(C(=O)NS(=O)(=O)CCCN4CCOCC4)cn23)C1 (stereo not shown) [Example 51, 10-tert-Butyl-N-[3-(morpholin-4-yl)propanesulfonyl]-7-thia-2,5-diazatricyclo[6.4.0.0^2,6]dodeca-1(8),3,5-triene-4-carboxamide] | 490
CC1(C)Cc2c(sc3nc(C(=O)NS(C)(=O)=O)cn23)C1(C)C [Example 52, N-Methanesulfonyl-4,4,5,5-tetramethyl-7-thia-1,9-diazatricyclo[6.3.0.0^2,6]undeca-2(6),8,10-triene-10-carboxamide] | 440
CC1(C)Cc2c(sc3nc(C(=O)NS(C)(=O)=O)cn23)C(C)(C)C1 [Example 53, N-Methanesulfonyl-9,9,11,11-tetramethyl-7-thia-2,5-diazatricyclo[6.4.0.0^2,6]dodeca-1(8),3,5-triene-4-carboxamide] | 480
CC1(C)Cc2c(sc3nc(C(=O)NS(=O)(=O)CCCN4CCOCC4)cn23)C(C)(C)C1 [Example 55, 9,9,11,11-Tetramethyl-N-[3-(morpholin-4-yl)propanesulfonyl]-7-thia-2,5-diazatricyclo[6.4.0.0^2,6]dodeca-1(8),3,5-triene-4-carboxamide] | 550

Further molecules by falling IC50, results first:

IC50 [nM] | SMILES
2980 | O=C(O)c1cn2c3c(sc2n1)C(O)CCC3 (stereo not shown) [Example 39, 9-Hydroxy-7-thia-2,5-diazatricyclo[6.4.0.0^2,6]dodeca-1(8),3,5-triene-4-carboxylic acid]
2910 | CS(=O)(=O)NC(=O)Cc1cn2c(n1)sc1c(Cl)c(Cl)ccc12 [Example 30, 2-{9,10-Dichloro-7-thia-2,5-diazatricyclo[6.4.0.0^2,6]dodeca-1(8),3,5,9,11-pentaen-4-yl}-N-methanesulfonylacetamide]
1360 | CCN(CC)CCCS(=O)(=O)NC(=O)c1cn2c3c(sc2n1)C(C)(C)CC(C)(C)C3 [Example 54, N-[3-(Diethylamino)propanesulfonyl]-9,9,11,11-tetramethyl-7-thia-2,5-diazatricyclo[6.4.0.0^2,6]dodeca-1(8),3,5-triene-4-carboxamide]
830 | CC1(C)CCc2c(sc3nc(C(=O)O)cn23)C1 [Example 33, 10,10-Dimethyl-7-thia-2,5-diazatricyclo[6.4.0.0^2,6]dodeca-1(8),3,5-triene-4-carboxylic acid]
740 | CC1(C)CCc2sc3nc(C(=O)NS(=O)(=O)CC(F)(F)F)cn3c2C1 [Example 57, 11,11-Dimethyl-N-(2,2,2-trifluoroethanesulfonyl)-7-thia-2,5-diazatricyclo[6.4.0.0^2,6]dodeca-1(8),3,5-triene-4-carboxamide]
460 | CCN(CC)CCCS(=O)(=O)NC(=O)c1cn2c(n1)sc1c(Cl)c(Cl)ccc12 [Example 29, 9,10-Dichloro-N-[3-(diethylamino)propanesulfonyl]-7-thia-2,5-diazatricyclo[6.4.0.0^2,6]dodeca-1(8),3,5,9,11-pentaene-4-carboxamide]
360 | O=C(O)c1cn2c3c(sc2n1)-c1ccccc1CC3 [Example 41, 16-Thia-11,14-diazatetracyclo[8.6.0.0^2,7.0^11,15]hexadeca-1 (10),2(7),3,5,12,14-hexaene-13-carboxylic acid]
320 | CC1(C)Cc2c(sc3nc(C(=O)O)cn23)C(C)(C)C1 [Example 32, 9,9,11,11-Tetramethyl-7-thia-2,5-diazatricyclo[6.4.0.0^2,6]dodeca-1(8),3,5-triene-4-carboxylic acid]
70 | COC(=O)CCS(=O)(=O)NC(=O)c1cn2c(n1)sc1c(Cl)c(Cl)ccc12 [Example 27, Methyl 3-[({9,10-dichloro-7-thia-2,5-diazatricyclo[6.4.0.0^2 6]dodeca-1(8),3,5,9,11-pentaen-4-yl}formamido)sulfonyl]propanoate]
